Literature values, collected in US20210169075A1, “ANTIBIOFILM FORMULATIONS AND METHODS FOR MICROBIAL DECONTAMINATION” (priority 2019, published 2021).
Values after ≈ are worked out from the molar mass of the structure shown.

Conditions: aqueous

C=CC(=C)CCC=C(C)C [Myrcene, myrcene]
solubility concentration: 4.09 µg/mL (≈ 30 µM)
